Measured values from BindingDB's records for doi:10.1021/jm300416h (Taiho Pharmaceutical, 2012).

Key:
[1] = Inhibition of human dUTPase-mediated cell proliferation in HeLa S3 cells assessed as compound concentration required to reduce 50% of 1 uM of FdUrd T/C after 24 hrs by crystal violet staining
[2] = Inhibition of human dUTPase-mediated cell proliferation in HeLa S3 cells after 72 hrs by crystal violet staining

SMILES | EC50 [1] [µM] | IC50 [2] [µM]
CC(C)(CC/C=C/Cn1ccc(=O)[nH]c1=O)NS(=O)(=O)c1cccc(OC2CCCC2)c1 | 0.2 | –
CC(C)(NS(=O)(=O)c1ccccc1)c1ccc(Cn2ccc(=O)[nH]c2=O)cc1 | 2.6 | –
C[C@@H](NS(=O)(=O)CC/C=C/Cn1ccc(=O)[nH]c1=O)c1cccc(OCC2CC2)c1 | 0.066 | 38.2
COc1cccc(S(=O)(=O)NC(C)(C)CC/C=C/Cn2ccc(=O)[nH]c2=O)c1 | 0.45 | –
COc1cccc(S(=O)(=O)NC(C)(C)c2ccc(Cn3ccc(=O)[nH]c3=O)cc2)c1 | 3.13 | –
CC(C)(CCCOCn1ccc(=O)[nH]c1=O)NS(=O)(=O)c1ccccc1 | 5.1 | –
CC(C)(NS(=O)(=O)c1cccc(OC2CCCC2)c1)c1ccc(Cn2ccc(=O)[nH]c2=O)cc1 | 0.12 | –
C[C@@H](NS(=O)(=O)c1ccc(Cn2ccc(=O)[nH]c2=O)cc1)c1cccc(OCC(F)F)c1 | 0.61 | –
C[C@@H](NS(=O)(=O)CC/C=C/Cn1ccc(=O)[nH]c1=O)c1cccc(OCC(F)F)c1 | 0.096 | –
CC(C)(CC/C=C/Cn1ccc(=O)[nH]c1=O)NS(=O)(=O)c1cccc(OCC(F)F)c1 | 0.049 | –
C[C@@H](NS(=O)(=O)CC/C=C/Cn1ccc(=O)[nH]c1=O)c1cccc(OC2CCCC2)c1 | 0.15 | –
CC(C)(NS(=O)(=O)c1cccc(OCC(F)F)c1)c1ccc(Cn2ccc(=O)[nH]c2=O)cc1 | 0.1 | –
CC(C)(NS(=O)(=O)c1cccc(OCC2CC2)c1)c1ccc(Cn2ccc(=O)[nH]c2=O)cc1 | 0.14 | –
C[C@@H](NS(=O)(=O)c1ccc(Cn2ccc(=O)[nH]c2=O)cc1)c1cccc(OC2CCCC2)c1 | 0.61 | –
C[C@@H](NS(=O)(=O)c1ccc(Cn2ccc(=O)[nH]c2=O)cc1)c1cccc(OCC2CC2)c1 | 0.93 | –
CC(C)(CC/C=C/Cn1ccc(=O)[nH]c1=O)NS(=O)(=O)c1ccccc1 | 2.6 | –
